{
  "source": "patent US10188633B2",
  "about": "“Identification of small molecules that facilitate therapeutic exon skipping” (The Regents of the University of California, priority 2011, dated 2019)",
  "key": {"[1]": {"test_system": "human DMD exon 50 GFP based reporter", "experiment": "BioMol high throughput screen in Ex50-GFP reporter C2C12 myoblasts, with or without AON6", "type": "cell-based, mouse", "conditions": "compound 10 uM; for Average Fluorescence (n = 3): average of 3 replicate plates", "text": "Small molecule libraries were screened for exon skipping promoting activity in C2C12 myoblasts expressing a human DMD exon 50 GFP based reporter. […] In the reporter cells, successful skipping of DMD exon 50 creates in-frame GFP expression. Number of cells that were fluorescing was quantified using a high content cell imager in 384 well plate format. Fluorescence was normalized by subtracting the average fluorescence value of the carrier (DMSO) controls. Fluorescence readouts are plotted for the BioMol library screen both with (+AO) and without (−AO) from Source Plate 1 (containing the Orphan Ligand, Ion Channel, Enzyme Inhibitor, and Endocannabanoid libraries, n=300). Each point for the DMSO controls, all compounds, and the Top 5% from Source Plate 1 (n=15) represents the average normalized fluorescence of 6 replicates in the −AO screen and 3 replicates in the +AO screen. […] Individual points for dantrolene are plotted with the bold horizontal line indicating the median. The short horizontal lines interspersed among the data points indicate 1, 2, and 3 standard deviations away from the DMSO treatment mean fluorescence.\nIn contrast to prior screens aimed at identifying small molecules which impact exon skipping, our screen is unique at least because it relies on robust quantitation of a skipping reporter in the context of a muscle lineage cell in the presence and absence of suboptimal AO. These screens were performed using a mouse muscle cell line (C2C12) expressing a human DMD exon 50 GFP based reporter selected to minimize experimental variation and sensitivity in the context of an automated and quantitative fluorescent scanning system.\nAO was added prior to small molecule incubation in an effort to identify molecules that facilitate AO skipping rather than AO delivery. The fluorescence induced by each compound was normalized to a vehicle controls per plate to correct for plate to plate variability. Fluorescence was averaged across replicate plates (n=6 without AO screen, n=3 with AO screen). Compounds were rank ordered based on average intensity of fluorescence and difference between the without AO and with AO screen (FIG. 1 and Table 2).\n(§1) A stable clone was generated from C2C12 cells transfected with a human exon 50 DMD GFP reporter (ex50GFP) that has been previously described. Ex50GFP reporter myoblasts were seeded into uncoated 384 well plates and were incubated for 4 hours either with or without 300 nM of 2′-O-methyl phosphorothioate AON6 [5′[…] 3′ (SEQ ID NO:1)] targeting the human exon 50 splice donor site. Cells were transfected with AON6 using the FUGENE (Roche) transfection reagent per manufacturer's instructions. Following AON6 incubation, each component of the BioMol library (n=503) was screened at 10 uM concentration with a final concentration of the DMSO carrier being 1%. Forty-eight hours later fluorescence was measured using the MicroXpress high content imager and analyzed using MetaXpress. Immediately preceding imaging, DNA was stained with Hoescht for 30 min. The BioMol screen without AO (−AO) was performed in 6 replicates, and the with AO (+AO) screen was performed in 3 replicates. For the screen analysis raw fluorescence values were normalized to carrier controls present on each plate by subtracting the values. Negative fluorescence values were set to 0. The data from each compound were averaged from all replicates. For secondary screening by 12 or 16 point dose response, Ex50GFP myoblasts or C2C12 cells without the reporter were seeded on uncoated 384 well plates. A sub-optimal dose of AON6 targeting DMD exon 50 was added for 4 hours."}, "exon skipping": {"test_system": "exon skipping", "experiment": "Counter screens, 16 point titrations and mdx mouse myotubes (validation of lead hits)", "type": "cell-based", "text": "The cell line, which was adapted to allow the screening of thousands of compounds in multiple replicates, was obtained from Dr. Qi Lu. […]"}, "[2]": {"test_system": "human DMD exon 50 GFP based reporter", "experiment": "Secondary screening, 12 or 16 point titrations on the DMD exon 50 reporter cell line with or without AON6", "type": "cell-based, mouse", "conditions": "for increase in fluorescence in the Ex50-GFP+AO compared to the reporter line without AO: 12 or 16 point titrations from 100 uM, positivity criterion (FIG. 5 legend: >10%); for dose response in Ex50-GFP reporter: 12 or 16 point titrations with AON6", "protocol": "12 or 16 point titrations of compounds were added to the Ex50-GFP and C2C12 myoblasts either with or without AON6.\nas §1, with “hours. Following the 4 hour incubation, a compound dilution was added (beginning at 100 uM with 1:1 dilutions) for either 12 or 16 points. After a 48 hour incubation with compounds, DNA was stained with Hoescht, and fluorescence determined using the high content imager and analyzed with MetaXpress.” for “hours.”"}, "DMD exon 31": {"test_system": "DMD exon 31", "conditions": "cited from earlier work"}, "[3]": {"conditions": "cited from earlier work"}, "[4]": {"test_system": "Ca2+-ATPase of sarcoplasmic reticulum", "conditions": "at 0.5-2 μM ATP; cited from earlier work"}, "DMD exon 51": {"test_system": "DMD exon 51", "conditions": "cited from earlier work"}, "[5]": {"conditions": "Without AON6 screen, 48 h, normalized to DMSO carrier controls"}, "[6]": {"conditions": "With AON6 screen, 48 h, fluorescence normalized by subtracting DMSO carrier controls"}, "[7]": {"conditions": "With AON6 screen, 48 h, normalized to DMSO carrier controls"}},
  "data": [
    {"molecule": "CN(C)CCCn1cc(C2=C(c3c[nH]c4ccccc34)C(=O)NC2=O)c2ccccc21", "note": "[GF 109203X]", "values": [
      {"measurement": "Fluorescence Plate 1", "setting": "[1]; [5]", "value": 22.19},
      {"measurement": "Fluorescence Plate 2", "setting": "[1]; [5]", "value": 15.01},
      {"measurement": "Fluorescence Plate 3", "setting": "[1]; [5]", "value": 13.67},
      {"measurement": "Fluorescence Plate 4", "setting": "[1]; [5]", "value": 66.78},
      {"measurement": "Fluorescence Plate 5", "setting": "[1]; [5]", "value": 64.46},
      {"measurement": "Fluorescence Plate 6", "setting": "[1]; [5]", "value": 66.48},
      {"measurement": "Average Fluorescence (n = 6)", "setting": "[1]; Without AON6 screen, average of 6 replicate plates", "value": 41.76},
      {"measurement": "efficacy in counter screen and on mdx mouse myotubes", "setting": "exon skipping", "value": "showing efficacy in counter screen and on mdx mouse myotubes"}
    ]},
    {"molecule": "CC1CNCCN1S(=O)(=O)c1cccc2cnccc12", "note": "(stereo not shown) [H-7]", "values": [
      {"measurement": "Fluorescence Plate 1", "setting": "[1]; [6]", "value": 29.03},
      {"measurement": "Fluorescence Plate 2", "setting": "[1]; [7]", "value": 30.45},
      {"measurement": "Fluorescence Plate 3", "setting": "[1]; [7]", "value": 12.11},
      {"measurement": "Average Fluorescence (n = 3)", "setting": "[1]; With AON6 screen", "value": 23.87},
      {"measurement": "increase in fluorescence in the Ex50-GFP+AO compared to the reporter line without AO", "setting": "[2]", "value": 10, "unit": "%"},
      {"measurement": "dose response in Ex50-GFP reporter", "setting": "[2]", "value": "evidence of a dose response"}
    ]},
    {"molecule": "CCN1/C(=C/C(C)=O)Sc2ccc(OC)cc21", "note": "[TG003]", "values": [
      {"measurement": "mutant exon 31 skipping", "setting": "DMD exon 31", "value": "increased mutant exon 31 skipping"}
    ]},
    {"molecule": "O=C1CN(/N=C/c2ncc(-c3ccc(Br)cc3)o2)C(=O)N1", "note": "[azumolene]", "values": [
      {"measurement": "water solubility relative to dantrolene", "setting": "[3]", "value": "more water soluble than dantrolene"}
    ]},
    {"molecule": "CYCLOPIAZONIC ACID", "values": [
      {"measurement": "Fluorescence Plate 1", "setting": "[1]; [6]", "value": 29.57},
      {"measurement": "Fluorescence Plate 2", "setting": "[1]; [7]", "value": 33.40},
      {"measurement": "Fluorescence Plate 3", "setting": "[1]; [7]", "value": 17.24},
      {"measurement": "Average Fluorescence (n = 3)", "setting": "[1]; With AON6 screen", "value": 26.74},
      {"measurement": "amount completely inhibiting the enzyme", "setting": "[4]", "value": "Induces the release of intracellular stored Ca2+, without increasing IP3 levels, via inhibition of endoplasmic reticulum Ca2+− ATPase. It is a highly specific inhibitor of the Ca2+− ATPase of sarcoplasmic reticulum, completely inhibiting the enzyme at 6-8 nmol/mg protein (at 0.5-2 μM ATP)."},
      {"measurement": "increase in fluorescence in the Ex50-GFP+AO compared to the reporter line without AO", "setting": "[2]", "value": 10, "unit": "%"},
      {"measurement": "dose response in Ex50-GFP reporter", "setting": "[2]", "value": "evidence of a dose response"}
    ]},
    {"molecule": "Pro051: systemic 2′-O-methyl modified AO directed against DMD exon 51 (antisense UCAAGGAAGAUGGCAUUUCU; all 2'-O-methyl, backbone not given here)", "values": [
      {"measurement": "rescued dystrophin protein levels", "setting": "DMD exon 51; systemic 2'-O-methyl AO, phase 1-2a", "value": "1.8-15.6 % of normal"},
      {"measurement": "6 minute walk test at 48 weeks", "setting": "DMD exon 51; weekly subcutaneous 6 mg/kg, non-placebo controlled extension", "value": "modest improvement"}
    ]}
  ]
}
